Earlier results in US20100273186A1, “SPLIT MUTANT HYDROLASE FUSION REPORTER AND USES THEREOF” (Promega Corporation, priority 2007, published 2010).

Test system: Photinus pyralis luciferase

reduction of activity on addition of cyclic AMP dependent protein kinase catalytic subunit (Waud et al.) | Substance | decrease of activity when phosphorylated (Sala-Newby et al.)
30% | LRRASLG | 
 | RRFS: Photinus pyralis luciferase mutant, V217R generating site RRFS (SEQ ID NO:11), Sala-Newby et al. | up to 80%
